Laboratory results published in PubChem BioAssay (NCI).
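Five compound concentrations were applied to cells in 96-well plates for 48 hours; endpoints were derived by simple linear interpolation of the resulting dose-response curve. Abbreviation: GI50, concentration required for 50% inhibition of growth. TGI marks complete inhibition of growth.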

Legend:
Assay in all cases: growth of human tumour cells (NCI), 48 h
OVCAR-3 ovarian = system: OVCAR-3 ovarian
SK-MEL-2 melanoma = system: SK-MEL-2 melanoma
OVCAR-5 ovarian = system: OVCAR-5 ovarian
SN12C renal = system: SN12C renal
U251 CNS = system: U251 CNS
HCT-116 colon = system: HCT-116 colon
IGROV1 ovarian = system: IGROV1 ovarian
HL-60(TB) leukemia = system: HL-60(TB) leukemia
A498 renal = system: A498 renal
UACC-62 melanoma = system: UACC-62 melanoma

Row | SMILES | TGI (OVCAR-3 ovarian) | TGI (SK-MEL-2 melanoma) | TGI (OVCAR-5 ovarian) | TGI (SN12C renal) | TGI (U251 CNS) | TGI (HCT-116 colon) | TGI (IGROV1 ovarian) | TGI (HL-60(TB) leukemia) | TGI (A498 renal) | TGI (UACC-62 melanoma) | GI50 (OVCAR-3 ovarian) | GI50 (SK-MEL-2 melanoma) | GI50 (OVCAR-5 ovarian) | GI50 (SN12C renal) | GI50 (U251 CNS) | GI50 (HCT-116 colon) | GI50 (IGROV1 ovarian) | GI50 (HL-60(TB) leukemia) | GI50 (A498 renal) | GI50 (UACC-62 melanoma)
1 | O=C(O)C(CS)N=Cc1nc(-c2ccccc2)oc1O (centres undefined) | > 100 µM | > 100 µM | > 100 µM | > 100 µM | > 100 µM | > 100 µM | > 100 µM | > 100 µM | > 100 µM | > 100 µM | – | – | – | – | – | – | – | – | – | –
2 | CCCCCCCCCCCCNC(=O)[C@H]1CSC(c2ccsc2)N1 (some centres undefined) | 1.81 µM | 1.76 µM | 1.83 µM | 1.64 µM | 1.61 µM | 1.71 µM | 1.92 µM | 2.31 µM | 17.1 µM | 1.82 µM | 0.995 µM | 0.974 µM | 0.991 µM | 0.911 µM | 0.875 µM | 0.908 µM | 0.96 µM | 0.91 µM | 9.62 µM | 0.929 µM
3 | NC(=O)c1ncn(C2OC(CO)C(O)C2O)c1NC(=S)NC(=O)c1ccccc1 (centres undefined) | > 100 µM | > 100 µM | > 100 µM | > 100 µM | > 100 µM | > 100 µM | > 100 µM | > 100 µM | > 100 µM | > 100 µM | – | – | – | – | – | – | – | – | – | –
4 | CCCC/C=C1\CCC(CN2CCCC2)C1=O (centres undefined) | 31.5 µM | 29.8 µM | 33.4 µM | 32 µM | 19.6 µM | 27.3 µM | 34.2 µM | 31.4 µM | 28.2 µM | 31.2 µM | – | – | – | – | – | – | – | – | – | –
5 | CN1C=C(C(N)=O)C2CC(O)[C@@](NC(=O)CS(N)(=O)=O)(C(=O)O)C2C1 (some centres undefined) | 42.6 µM | 8.22 µM | 6.8 µM | > 75.1 µM | 11 µM | 18.7 µM | 7.83 µM | > 100 µM | 4.96 µM | 7.02 µM | – | – | – | – | – | – | – | – | – | –
6 | COc1ccc(-c2nn(-c3cccc(Cl)c3)cc2/C=C2\C(=N)N(c3ccccc3)N=C2N)cc1 | 20.4 µM | 12.6 µM | > 65.9 µM | > 100 µM | 35.2 µM | 17.2 µM | > 84.8 µM | 9.24 µM | > 78.8 µM | 3.75 µM | 3.09 µM | 1.66 µM | 2.08 µM | 3.33 µM | 3 µM | 1.59 µM | 2.1 µM | 0.414 µM | 11.2 µM | 0.331 µM
7 | NCCn1c2c(c3ccccc3c1=O)C(=O)c1ccccc1-2 | 2.53 µM | 9.71 µM | 2.57 µM | 2.13 µM | 3.59 µM | 1.56 µM | > 45.8 µM | 0.611 µM | 5.49 µM | 5.69 µM | 0.681 µM | 2.7 µM | 0.674 µM | 0.266 µM | 0.544 µM | 0.234 µM | 0.592 µM | 0.162 µM | 0.476 µM | 0.833 µM
8 | COc1ccccc1-c1nccc(COc2ccccc2C[C@@H](Oc2ncnc3sc(-c4ccc(F)cc4)c(-c4ccc(OCCN5CCN(C)CC5)c(Cl)c4C)c23)C(=O)O)n1 | 6.99 µM | 0.0367 µM | 6.25 µM | 3.83 µM | 4.15 µM | 6.55 µM | 6.08 µM | 0.0524 µM | 0.522 µM | 1.41 µM | 2.51 µM | < 0.0114 µM | 2.12 µM | 1.75 µM | 1.88 µM | 2.43 µM | 2.27 µM | 0.0205 µM | – | 0.0761 µM
9 | COc1cccc(C2CC(=O)Nc3cc4c(cc32)CCC4)c1OC (centres undefined) | 5.9 µM | 17.3 µM | > 80.3 µM | 34.8 µM | 19.3 µM | 16 µM | 59.3 µM | 7.88 µM | 13.2 µM | 14.4 µM | 2.37 µM | 4.12 µM | 7.67 µM | 5.4 µM | 4.71 µM | 3.61 µM | 6.49 µM | 2.73 µM | 2.39 µM | 2.9 µM
10 | Cc1cc(N(CCC#N)CCC#N)ccc1/C=C/C(=O)Nc1ccccc1Cl | > 100 µM | > 100 µM | > 100 µM | > 100 µM | > 100 µM | > 100 µM | > 100 µM | > 100 µM | > 100 µM | > 100 µM | – | – | – | – | – | – | – | – | – | –
11 | Cc1cc(C)c2nccc(NCCCN(C)C)c2c1[N+](=O)[O-] | > 100 µM | 58.8 µM | > 100 µM | > 100 µM | > 100 µM | > 100 µM | 92.3 µM | 78.1 µM | > 100 µM | > 100 µM | – | – | – | – | – | – | – | – | – | –
12 | Cc1nnc(N=Nc2c(O)[nH]c3ccccc23)[nH]c1=O | > 100 µM | > 100 µM | > 100 µM | > 100 µM | > 100 µM | > 100 µM | > 100 µM | > 100 µM | > 100 µM | > 100 µM | – | – | – | – | – | – | – | – | – | –
13 | CC(=O)OC1Oc2cc(C)c(C)cc2-c2oc(=O)c(-c3ccccc3)cc21 (centres undefined) | 0.355 µM | > 63.3 µM | > 100 µM | > 100 µM | 58.8 µM | 46.9 µM | 0.432 µM | 0.467 µM | 3.11 µM | > 32.6 µM | 0.114 µM | 0.572 µM | 5.18 µM | 0.487 µM | 0.44 µM | 0.455 µM | 0.139 µM | 0.111 µM | 0.271 µM | 0.289 µM
14 | COc1ccc(-c2nn(-c3cccc(Cl)c3)cc2-c2cc(-c3cccs3)no2)cc1 | 25 µM | 10.9 µM | 74.1 µM | 18.7 µM | 15.4 µM | 12.7 µM | 16.2 µM | 38.3 µM | 14.6 µM | 20 µM | 5.07 µM | 3.34 µM | 7.63 µM | 3.48 µM | 3.61 µM | 3.03 µM | 4 µM | 4.73 µM | 1.81 µM | 3.55 µM
15 | COC(=O)C1=C(C(=O)OC)C(C(=O)OC)C(C(=O)OC)C(C(=O)OC)(C(=O)OC)C(C(=O)OC)=C1C(=O)OC (centres undefined) | 28.9 µM | 35.1 µM | 35.3 µM | 27.5 µM | 31 µM | 19.6 µM | 36.8 µM | 4.95 µM | 29.3 µM | 31 µM | – | – | – | – | – | – | – | – | – | –
16 | Cc1cc(Nc2cc(N3CCN(C)CC3)nc(C#Cc3ccccc3)n2)n[nH]1 | 17.8 µM | 7.9 µM | 18.8 µM | 14.2 µM | 16.9 µM | 12.7 µM | 6.05 µM | 14.8 µM | 3.68 µM | 15.1 µM | 4.46 µM | 1.24 µM | 3.58 µM | 2.4 µM | 3.52 µM | 1.4 µM | 1.13 µM | 2.52 µM | 0.703 µM | 2.45 µM
